Test results reported in ChEMBL document CHEMBL1147250, “Enhancement of the antiplasmodial activity of quassin by transformation into a gamma-lactone” (J Nat Prod, 2003).
pIC50: −log10 of the molar value.

Legend:
Plasmodium falciparum [1] = experiment: Antiplasmodial activity against chloroquine-resistant Plasmodium falciparum K1 infected erythrocytes by [3H]hypoxanthine uptake; format: functional, organism-based
[2] = Selectivity index, ratio of IC50 for human KB cells to IC50 for Plasmodium falciparum K1; format: toxicity, cell-based; details: KB cells (cytotoxicity) versus Plasmodium falciparum K1, read-out: Selectivity Index
Plasmodium falciparum [3] = experiment: Antiplasmodial activity against Plasmodium falciparum K1

| Compound | pIC50 (Plasmodium falciparum [1]) | selectivity ratio [2] | pIC50 (Plasmodium falciparum [3]) |
| --- | --- | --- | --- |
| COC1=C[C@@H](C)[C@@H]2C[C@H]3OC(OC(=O)c4cccc(Cl)c4)[C@H](O)[C@H]4C(C)=C(OC)C(=O)[C@H]([C@@]2(C)C1=O)[C@]43C (some centres not stated) | 3.63 | 112 | 5.74 |
| CC[C@H]1CN2CCc3cc(OC)c(OC)cc3[C@@H]2C[C@@H]1C[C@H]1NCCc2cc(OC)c(OC)cc21 | 6.02 | – | – |
| COC1=C[C@@H](C)[C@@H]2C[C@H]3OC(=O)[C@H](O)[C@H]4C(C)=C(OC)C(=O)[C@H]([C@@]2(C)C1=O)[C@]43C | < 3.00 | > 1.1 | 3.03 |
| COC1=C[C@@H](C)[C@@H]2C[C@H]3OC=C[C@H]4C(C)=C(OC)C(=O)[C@H]([C@@]2(C)C1=O)[C@@]34C [ANHYDROQUASSIN] | < 3.00 | > 1 | 3.09 |
| CCN(CC)CCCC(C)Nc1ccnc2cc(Cl)ccc12 (configuration not stated) [CHLOROQUINE PHOSPHATE] | – | – | 6.22 |
| COC1=C[C@@H](C)[C@@H]2C[C@H]3OC(O)[C@H](O)[C@H]4C(C)=C(OC)C(=O)[C@H]([C@@]2(C)C1=O)[C@]43C (some centres not stated) [HYDROXYNEOQUASSINS] | – | – | 4.17 |
| COC1=C[C@@H](C)[C@@H]2C[C@H]3OC(OC4C[C@H]5C(C)=C(OC)C(=O)[C@@H]6[C@@]7(C)C(=O)C(OC)=C[C@@H](C)[C@@H]7C[C@@H](O4)[C@]65C)C[C@H]4C(C)=C(OC)C(=O)[C@H]([C@@]2(C)C1=O)[C@@]34C (some centres not stated) [NEOQUASSIN ETHER] | 3.83 | 15.3 | 5.01 |
| COC1=C[C@@H](C)[C@@H]2C[C@H]3OC(O)C[C@H]4C(C)=C(OC)C(=O)[C@H]([C@@]2(C)C1=O)[C@@]34C (some centres not stated) [NEOQUASSIN] | 3.21 | 1.3 | 3.33 |
| COC1=C[C@@H](C)[C@@H]2C[C@H]3O[C@@H](O)[C@H]4C(C)=C(OC)C(=O)[C@H]([C@@]2(C)C1=O)[C@]43C [QUASSILACTOL] | 3.24 | 8.9 | 4.19 |
| COC1=C[C@@H](C)[C@@H]2C[C@H]3OC(=O)[C@H]4C(C)=C(OC)C(=O)[C@H]([C@@]2(C)C1=O)[C@]43C [QUASSILACTONE] | 3.39 | 17.7 | 4.64 |
| COC1=C[C@@H](C)[C@@H]2C[C@H]3OC(=O)C[C@H]4C(C)=C(OC)C(=O)[C@H]([C@@]2(C)C1=O)[C@@]34C [QUASSIN] | < 3.00 | > 1 | 3.04 |
